According to patent US6593511B1, “Models of chronic and acute inflammatory diseases” (Bioseek, Inc., priority 2000, dated 2003):

Tests used:
scid/scid mice = experiment: Effect of co-factors on disease induction in the scid/scid CD4+/CD25- transfer model; type: in vivo, mouse; details: 20 μg s.c. on day one after cell transfer
Description: Induction of chronic skin inflammation. Briefly, splenocytes were collected from 5-10 week old donor mice (Balb/c) and donor population was either enriched for CD4+ and depleted of CD25+ cells, or depleted of CD25+ cells only. The collected cell population was injected subcutaneously (s.c.) into C.B-17/Icr scid/scid mice, aged 4-8 weeks (usually 3×10^5 to 5×10^5 cells per mouse in 200-400 μL). A systemic (s.c., i.p. or i.v.) injection of an immuno-modulating agent was given 24 hours following cell transfer. Alternatively, these co-injections were given at the same time to one week after. The co-injection was, alternatively, repeated every other day or once a week for the entire course of the experiment.
After 24 hours all recipient mice were given a co-injection of 20 μg LPS (or 10 μg SEB) s.c. Disease causing T cells then proliferated and began to induce inflammation over a period of 4 weeks
The thickness of the skin on the ear was measured using a Dyer micrometer. The micrometer was first modified to better perform in the measurement of soft tissue. The contact pads are reduced to 4 mm, and the spring tension is reduced to <3 lbs.
Co-factor injections are important for their mitogenic properties. […]
The effect of different co-factors on disease induction was assessed. […]

psoriatic scid/scid mice = experiment: Treatment of established chronic skin inflammation (psoriasis) in scid/scid mice after transfer of CD4+/CD25- T cells and LPS; ear thickness and histology; type: in vivo, mouse
Description: Mice. Female Balb/c mice (donor mice) were purchased from Jackson Labs (Bar Harbor, Me.) or similar source, and C.B-17/Icr scid/scid (recipient mice) were purchased from Taconic (Germantown, N.Y.) or Charles River. All mice were housed in a specific pathogen free environment and were used between 4-8 wk of age. Mice were housed 2-5 per microisolator. All scid/scid mice were handled with gloves under a class II hood, fed sterile food and water ad libitum, and maintained in sterilized microisolators that are changed twice weekly. Donor mice were housed in conventional cages that were changed weekly.
Induction of chronic skin inflammation. Briefly, splenocytes were collected from 5-10 week old donor mice (Balb/c) and donor population was either enriched for CD4+ and depleted of CD25+ cells, or depleted of CD25+ cells only. The collected cell population was injected subcutaneously (s.c.) into C.B-17/Icr scid/scid mice, aged 4-8 weeks (usually 3×10^5 to 5×10^5 cells per mouse in 200-400 μL). […]
Cell Selection: Balb/c mouse spleens were collected and homogenized by pressing through 100 μ cell strainer (Falcon) and suspended in cold PBS supplemented with 10% FBS. […] The resultant cell quantities were 5-8 million cells per spleen. […]
The thickness of the skin on the ear was measured using a Dyer micrometer. […]

Substance	incidence of disease (scid/scid mice; 5/5) [%]	average ear thickness (scid/scid mice; week 7, n=5 mice, +/- SEM, 30 μm+/−1.2 without co-factor, p=3.6×10^−3) [μm]	skin thickness after treatment (psoriatic scid/scid mice; after 8 days of 40 mg/kg twice/day, p=2.01×10^−6) [μm]	skin thickness before treatment (psoriatic scid/scid mice; baseline before 40 mg/kg twice/day for 8 days) [μm]
lipopolysaccharide [LPS]	100	36.4		
methylprednisone			22.4	33.7
